Like-named read-outs stand apart in the source and are kept apart here.
Experiments:
[1] = biological target: T1, AKT Kinase-NanoLuc fusion in HEK-293 cells (Homo sapiens, UniProt P31749); assay: NanoBRET target engagement assay in transfected HEK-293 cells, AKT; assay type: cell-based
T1 construct: host or cells: HEK-293
From the text: (§1) The NanoBRET™ assay measures kinase engagement in real time in the context of the intact cell. The assay uses a Kinase-NanoLuc® fusion vector expressing a kinase protein to which a luciferase tag has been added, a cell-permeant fluorescent NanoBRET™ tracer, a NanoLuc® substrate, and an extracellular NanoLuc® inhibitor. Upon expression of the luciferase-tagged kinase, cells will produce a strong BRET signal only in the presence of the NanoBRET™ tracer. The extracellular NanoLuc® inhibitor ensures that the BRET signal observed emanates only from live cells. Because the BRET signal has tight distance constraints, addition of the test compound will decrease the BRET signal if the compound competes with the NanoBRET™ tracer for binding to the kinase domain. Under the appropriate tracer conditions established by the manufacturer, quantitative intracellular affinity and relative potency can then be determined using Mass Action model equations.
(§2) HEK-293 cells were purchased from ATCC. FuGENEHD Transfection Reagent, Kinase-NanoLuc® fusion plasmids, Transfection Carrier DNA, NanoBRET™ Tracers and dilution buffer, NanoBRET™ Nano-Glo Substrate, Extracellular NanoLuc® Inhibitor were obtained from Promega.
(§3) Assays were conducted following Promega assay protocol with some modifications as described further below. HEK-293 Cells were transiently transfected with Kinase-NanoLuc® Fusion Vector DNA by FuGENE HD Transfection Reagent. Test compounds were delivered into 384 well assay plate by Echo 550 (Labcyte Inc, Sunnyvale, CA). Transfected cells were harvested and mixed with NanoBRET™ Tracer Reagent and dispensed into 384 well plates and incubated at 37° C. in 5% CO2 cell culture incubator for 1 hour. The NanoBRET™ Nano-Glo Substrate plus Extracellular NanoLuc® Inhibitor Solution were added into the wells of the assay plate and incubated for 2-3 minutes at room temperature. The donor emission wavelength (460 nm) and acceptor emission wavelength (600 nm) were measured in the EnVision plate reader. The BRET Ratios were calculated. BRET Ratio=[(Acceptor sample÷Donor sample)−(Acceptor no-tracer control÷Donor no-tracer control)]. The IC50 values of compounds were calculated with Prism GraphPad program.
(§4) • 1. Transient Transfection of HEK-293 Cells NanoLuc® Fusion Vector DNA • 1). Cultivate HEK-293 cells (70-80% confluence) appropriately prior to assay. Trypsinize and collect HEK-293 cells. • 2). Prepare lipid: DNA complexes as follows: • a. Prepare a […] solution of DNA in Opti-MEM™ without serum that consists of the following ratios of carrier DNA and DNA encoding NanoLuc® fusion. 9.0 µg/mL of Transfection Carrier DNA, […] of NanoLuc® fusion vector DNA and 1 mL of Opti-MEM™ without phenol red. Mix thoroughly. • b. Add 30 μl of FuGENE HD Transfection Reagent into each milliliter of DNA mixture to form lipid: DNA complex. • c. Mix by inversion 10 times. • d. Incubate at ambient temperature for 20 minutes to allow complexes to form. • 3). In a sterile, conical tube, mix 1 part of lipid: DNA complex with 20 parts of HEK-293 cells in suspension. Mix gently by inversion 5 times. • 4). Dispense cells+lipid: DNA complex into a sterile tissue culture dish and incubate for 22-24 hours. • 2. Addition of Test Compounds (dry plate shooting): Each test compound is delivered from the compound source plate to the wells of 384-well white NBS plate by Echo 550. • 3. Preparation of Cells with NanoBRET™ Tracer Reagent • 1). Remove medium from dish with transfected HEK-293 cells via aspiration, trypsinize and allow cells to dissociate from the dish. • 2). Neutralize trypsin using medium containing serum and centrifuge at 200× g for 5 minutes to pellet the cells. Adjust the cell density to 2×10^5 cells/mL in Opti-MEM™ without phenol red. • 3). Prepare Complete 20× NanoBRET™ Tracer Reagent with Tracer Dilution Buffer. • 4). Dispense one part of Complete 20× NanoBRET™ Tracer Reagent to 20 parts of cells in the tube. Mix gently by inversion 10 times. • 5). […]

[2] = biological target: T2, LATS1 Kinase-NanoLuc fusion in HEK-293 cells (Homo sapiens, UniProt O95835); assay: NanoBRET target engagement assay in transfected HEK-293 cells, LATS1; assay type: cell-based
T2 construct: host or cells: HEK-293
T2 sequence (O95835 1-1130): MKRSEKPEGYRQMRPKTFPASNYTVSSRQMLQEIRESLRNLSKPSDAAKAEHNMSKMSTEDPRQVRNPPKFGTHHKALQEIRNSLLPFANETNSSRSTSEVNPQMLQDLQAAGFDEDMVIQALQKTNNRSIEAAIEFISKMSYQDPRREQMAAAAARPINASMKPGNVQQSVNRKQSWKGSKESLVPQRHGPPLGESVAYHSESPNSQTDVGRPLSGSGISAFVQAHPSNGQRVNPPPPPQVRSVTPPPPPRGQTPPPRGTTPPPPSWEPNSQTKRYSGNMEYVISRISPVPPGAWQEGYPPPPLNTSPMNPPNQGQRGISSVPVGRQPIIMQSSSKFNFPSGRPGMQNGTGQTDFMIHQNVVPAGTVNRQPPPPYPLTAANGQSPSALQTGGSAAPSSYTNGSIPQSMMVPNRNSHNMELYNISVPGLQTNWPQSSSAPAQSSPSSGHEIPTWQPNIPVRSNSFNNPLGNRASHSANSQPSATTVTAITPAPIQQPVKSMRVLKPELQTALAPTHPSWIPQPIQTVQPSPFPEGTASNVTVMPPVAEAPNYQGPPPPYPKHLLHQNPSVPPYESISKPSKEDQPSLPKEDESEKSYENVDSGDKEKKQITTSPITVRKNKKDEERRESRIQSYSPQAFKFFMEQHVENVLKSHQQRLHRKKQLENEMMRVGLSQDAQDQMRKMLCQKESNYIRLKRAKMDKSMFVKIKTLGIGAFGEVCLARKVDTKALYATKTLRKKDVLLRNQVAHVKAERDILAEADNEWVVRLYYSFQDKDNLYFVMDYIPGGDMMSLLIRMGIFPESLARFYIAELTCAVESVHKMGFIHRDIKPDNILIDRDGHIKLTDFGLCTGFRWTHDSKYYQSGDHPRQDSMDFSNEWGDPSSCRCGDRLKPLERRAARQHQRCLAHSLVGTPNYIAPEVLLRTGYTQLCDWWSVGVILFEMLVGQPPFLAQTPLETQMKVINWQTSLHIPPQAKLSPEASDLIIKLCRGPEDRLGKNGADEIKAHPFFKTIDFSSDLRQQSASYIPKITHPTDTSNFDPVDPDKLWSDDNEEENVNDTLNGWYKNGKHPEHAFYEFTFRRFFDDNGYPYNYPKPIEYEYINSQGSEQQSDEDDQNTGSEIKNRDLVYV
From the text: as §1, §2, §3, §4

[3] = Table 28, NanoBRET, HEK-293 cells, read-out: AKT1 (Cellular) IC50
[4] = Table 28, NanoBRET, HEK-293 cells, read-out: LATS1 (Cellular) IC50
[5] = cellular, read-out: AKT (Cellular) IC50
[6] = Table 32, NanoBRET, HEK-293 cells, read-out: AKT (Cellular) IC50
[7] = Table 32, NanoBRET, HEK-293 cells, read-out: LATS1 (Cellular) IC50

T1 sequence (P31749 whole entry, the tested form may be a part): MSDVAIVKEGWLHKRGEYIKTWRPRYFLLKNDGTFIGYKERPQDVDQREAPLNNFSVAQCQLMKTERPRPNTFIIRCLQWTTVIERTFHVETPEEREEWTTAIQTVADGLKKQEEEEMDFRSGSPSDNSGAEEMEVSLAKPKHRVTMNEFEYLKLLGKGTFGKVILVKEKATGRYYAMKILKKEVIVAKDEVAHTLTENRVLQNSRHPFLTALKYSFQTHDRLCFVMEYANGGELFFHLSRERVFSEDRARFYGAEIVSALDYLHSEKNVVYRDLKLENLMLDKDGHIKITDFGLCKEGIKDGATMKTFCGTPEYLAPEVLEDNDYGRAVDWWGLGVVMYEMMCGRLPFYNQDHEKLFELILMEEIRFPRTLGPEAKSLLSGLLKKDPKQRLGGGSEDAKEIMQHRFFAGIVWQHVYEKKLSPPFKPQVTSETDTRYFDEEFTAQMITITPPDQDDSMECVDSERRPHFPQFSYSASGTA

Row | IC50 [1, 3] [µM] | IC50 [2, 4] [µM] | Structure (SMILES) | other results
1 | 32 | 48.3 | Cc1cc(-c2ccnc3[nH]ccc23)ccc1C1CCNCC1 [Compound 177, 4-(3-methyl-4-(piperidin-4-yl)phenyl)-1H-pyrrolo[2,3-b]pyridine] | 
2 | > 50 | 0.653 | NCc1ccc(-c2ccnc3[nH]cc(-c4ccccc4)c23)cc1-c1ccccc1 [Compound 219, (5-(3-phenyl-1H-pyrrolo[2,3-b]pyridin-4-yl)-[1,1′-biphenyl]-2-yl)methanamine] | 
3 | > 30 | 0.0582 | Cc1cc(-c2ccnc3[nH]cc(F)c23)cc(F)c1C1(O)CC2(CN(C3COC3)C2)C1 [Compound 139, 6-(2-fluoro-4-(3-fluoro-1H-pyrrolo[2,3-b]pyridin-4-yl)-6-methylphenyl)-2-(oxetan-3-yl)-2-azaspiro[3.3]heptan-6-ol] | 
4 |  |  | Cc1cc(-c2ccnc3[nH]cc(C#N)c23)cc(F)c1[C@@]1(O)[C@H](C)CN(C(=O)[C@H](CO)N(C)C)C[C@@H]1C [Compound 2023, 4-(4-((3S,4R,5R)-1-(dimethyl-L-seryl)-4-hydroxy-3,5-dimethylpiperidin-4-yl)-3-fluoro-5-methylphenyl)-1H-pyrrolo[2,3-b]pyridine-3-carbonitrile] | IC50 [1, 5]: > 50 µM; IC50 ([2]; cellular): < 0.0025 µM
5 | 2.51 | 0.505 | C[C@@H]1CN(C)C[C@H](C)[C@@]1(O)c1cnc(-c2ccnc3[nH]cc(F)c23)cc1Cl [Compound 22, (3S,4s,5R)-4-(4-chloro-6-(3-fluoro-1H-pyrrolo[2,3-b]pyridin-4-yl)pyridin-3-yl)-1,3,5-trimethylpiperidin-4-ol] | 
6 |  |  | NCC(=O)NCC(O)(c1ccc(Cl)cc1)c1ccc(-c2ccnc3[nH]cc(Cl)c23)cc1 (stereo not shown) [Compound 1021, 2-amino-N-(2-(4-(3-chloro-1H-pyrrolo[2,3-b]pyridin-4-yl)phenyl)-2-(4-chlorophenyl)-2-hydroxyethyl) acetamide] | IC50 [1, 6]: 0.012 µM; IC50 [2, 7]: 0.159 µM
7 | 39.8 | 1.84 | O=C([C@H]1CCCN1)N1CCC(O)(c2ccc(-c3ccnc4[nH]cc(F)c34)cc2)CC1 [Compound 142] | 
8 | > 50 | 6.71 | Cc1cc(-c2ccnc3[nH]ccc23)ccc1CN [Compound 266, (2-methyl-4-(1H-pyrrolo[2,3-b]pyridin-4-yl)phenyl) methanamine] | 
9 | 39.4 | 1.19 | C[C@@H]1CN(C2CCS(=O)(=O)CC2)C[C@H](C)C1(O)c1c(F)cc(-c2ccnc3[nH]cc(F)c23)cc1F (stereo partly drawn) [Compound 31, 4-((3S,5R)-4-(2,6-difluoro-4-(3-fluoro-1H-pyrrolo[2,3-b]pyridin-4-yl)phenyl)-4-hydroxy-3,5-dimethylpiperidin-1-yl)tetrahydro-2H-thiopyran 1,1-dioxide] | 
10 |  |  | NCC(O)(c1ccc(Cl)cc1)c1ccc(-c2ccnc3[nH]ccc23)cc1 (stereo not shown) [Compound 1001, 1-(4-(1H-pyrrolo[2,3-b]pyridin-4-yl)phenyl)-2-amino-1-(4-chlorophenyl)ethan-1-ol] | IC50 [1, 6]: 0.042 µM; IC50 [2, 7]: 0.123 µM
11 | 17.3 | > 50 | c1cc(-c2ccc3c(c2)CCNC3)c2cc[nH]c2n1 [Compound 267, 6-(1H-pyrrolo[2,3-b]pyridin-4-yl)-1,2,3,4-tetrahydroiso-quinoline] | 
12 | 2.97 | 0.087 | Cc1cc(-c2ccnc3[nH]cc(F)c23)ccc1[C@@]1(O)[C@H](C)CN(C2CCC2)C[C@@H]1C [Compound 54, (3R,4s,5S)-1-cyclobutyl-4-(4-(3-fluoro-1H-pyrrolo[2,3-b]pyridin-4-yl)-2-methylphenyl)-3,5-dimethylpiperidin-4-ol] | 
13 | > 50 | > 50 | CC1CC(c2ccc(-c3ccnc4[nH]ccc34)cc2)CC(C)N1 (stereo not shown) [Compound 187, 4-(4-(2,6-dimethylpiperidin-4-yl)phenyl)-1H-pyrrolo[2,3-b]pyridine] | 
14 |  |  | Cc1cc(-c2ccnc3[nH]cc(C#N)c23)cc(F)c1[C@@]1(O)[C@H](C)CN(C2CCS(=O)(=O)CC2)C[C@@H]1C [Compound 2002, 4-(4-((3S,4s,5R)-1-(1,1-dioxidotetrahydro-2H-thiopyran-4-yl)-4-hydroxy-3,5-dimethylpiperidin-4-yl)-3-fluoro-5-methylphenyl)-1H-pyrrolo[2,3-b]pyridine-3-carbonitrile] | IC50 [1, 5]: 57.9 µM; IC50 ([2]; cellular): 0.0304 µM
15 | 8.64 | 0.06 | C[C@@H]1CNC[C@H](C)[C@@]1(O)c1ccc(-c2ccnc3[nH]cc(F)c23)nc1 [Compound 8, (3S,4s,5R)-4-(6-(3-fluoro-1H-pyrrolo[2,3-b]pyridin-4-yl)pyridin-3-yl)-3,5-dimethylpiperidin-4-ol] | 
16 | 49.4 | 4.59 | COC(=O)c1c[nH]c2nccc(-c3cc(C)c([C@@]4(O)[C@H](C)CN(C(=O)CN)C[C@@H]4C)c(F)c3)c12 [Compound 310, methyl 4-(3-fluoro-4-((3S,4s,5R)-1-glycyl-4-hydroxy-3,5-dimethylpiperidin-4-yl)-5-methylphenyl)-1H-pyrrolo[2,3-b]pyridine-3-carboxylate] | 

Row | Structure (SMILES) | IC50 [1, 3] [µM] | IC50 [2, 4] [µM] | other results
17 | Cc1cc(-c2ccnc3[nH]cc(F)c23)cc(F)c1[C@@]1(O)[C@H](C)CN(C(=O)CN)C[C@@H]1C [Compound 61, 2-amino-1-((3R,4s,5S)-4-(2-fluoro-4-(3-fluoro-1H-pyrrolo[2,3-b]pyridin-4-yl)-6-methylphenyl)-4-hydroxy-3,5-dimethylpiperidin-1-yl)ethan-1-one] | 3.44 | 0.004 | 
